{
  "source": "patent US10517889B2",
  "about": "“Modulators of SMAD7 expression” (Ionis Pharmaceuticals, Inc., priority 2017, dated 2019)",
  "note": "Strand notation (5' to 3'): a small letter for the sugar, then the base; units joined by * are phosphorothioate-linked, units joined directly phosphodiester-linked; [ ] holds rarer units or linkages, { } end groups; capitals alone tell only the bases. k = constrained ethyl (cEt); [5mC] = 5-methylcytosine; d = 2'-deoxy (DNA)",
  "data": [
    {"system": "human SMAD7 mRNA", "assay": "Antisense inhibition of human SMAD7 mRNA expression in Hep3B cells by 3-10-3 cEt gapmers, 10,000 nM, electroporation (Example 2)", "assay_type": "cell-based", "conditions": "Hep3B cells, 10,000 nM antisense oligonucleotide, electroporation, approximately 24 hours, RT-PCR primer probe set RTS5062, relative to untreated control cells", "method": "(§1) Antisense oligonucleotides were designed to target human SMAD7 mRNA and were tested for their effects on SMAD7 mRNA expression in vitro. The antisense oligonucleotides were tested in a series of experiments that had similar culture conditions, as described below. ION 771576, described in the studies above and which is a 5-10-5 MOE gapmer, was also included in these assays. Cultured Hep3B cells at a density of 20,000 cells per well were transfected using electroporation with 10,000 nM antisense oligonucleotide. After a treatment period of approximately 24 hours, RNA was isolated from the cells and SMAD7 mRNA levels were measured by quantitative real-time PCR. Primer probe set RTS5062 was used to measure human SMAD7 mRNA levels. SMAD7 mRNA levels were adjusted according to total RNA content, as measured by RIBOGREEN®. Results are presented as percent inhibition of SMAD7 mRNA expression, relative to untreated control cells.\n(§2) The newly designed chimeric antisense oligonucleotides in the Tables below were designed as 3-10-3 cEt gapmers. The gapmers are 16 nucleosides in length, wherein the central gap segment comprises often 2′-deoxynucleosides and is flanked by wing segments on the 5′ direction and the 3′ direction comprising three nucleosides each. Each nucleoside in the 5′ wing segment and each nucleoside in the 3′ wing segment has a cEt sugar modification. The internucleoside linkages throughout each gapmer are phosphorothioate (P═S) linkages. All cytosine residues throughout each gapmer are 5-methylcytosines.\n(§3) “Start site” indicates the 5′-most nucleoside to which the gapmer is targeted in the human gene sequence. “Stop site” indicates the 3′-most nucleoside to which the gapmer is targeted human gene sequence. […] Some of the oligonucleotides presented were complementary to SMAD7 mRNA sequences RefSeqNo. NM_001190821.1 (designated herein as SEQ ID NO: 3) or RefSeqNo. NM_001190822.1 (designated herein as SEQ ID NO: 4), and are presented in a separate table shown below.", "units": {"% Inhibition": "%"}, "values": [
      {"substance": "772597 (k[5mC]*kA*kG*dT*dA*dT*dG*d[5mC]*d[5mC]*dA*d[5mC]*d[5mC]*dA*k[5mC]*kG*k[5mC]; antisense) [compound 772597]", "% Inhibition": 0},
      {"substance": "772613 (kA*kT*kT*dG*dA*dG*d[5mC]*dT*dG*dT*d[5mC]*d[5mC]*dG*kA*kG*kG; antisense) [compound 772613]", "% Inhibition": 7},
      {"substance": "772621 (kA*kA*k[5mC]*dT*dG*d[5mC]*dT*dG*d[5mC]*dG*dG*dT*dT*kG*kT*kA; antisense) [compound 772621]", "% Inhibition": 38}
    ]},
    {"system": "human SMAD7 mRNA", "assay": "Antisense inhibition of human SMAD7 mRNA expression in Hep3B cells by 3-10-3 cEt gapmers, 10,000 nM, electroporation (Example 2)", "assay_type": "cell-based", "conditions": "Hep3B cells, electroporation with 10,000 nM antisense oligonucleotide, approximately 24 hours, SMAD7 mRNA by RT-PCR (RTS5062), relative to untreated control cells", "method": "as §1, §2, §3", "units": {"% Inhibition": "%"}, "values": [
      {"substance": "772536 (antisense kG*kA*k[5mC]*d[5mC]*dT*d[5mC]*d[5mC]*dG*d[5mC]*dA*d[5mC]*dA*d[5mC]*k[5mC]*kA*kT) [compound 772536]", "% Inhibition": 22},
      {"substance": "772556 (antisense kA*kG*k[5mC]*dA*dG*dG*dA*dG*dG*d[5mC]*dA*d[5mC]*dG*k[5mC]*kG*kG) [compound 772556]", "% Inhibition": 43},
      {"substance": "772557 (antisense kG*kT*k[5mC]*d[5mC]*dA*dG*dG*d[5mC]*dG*dG*d[5mC]*d[5mC]*dG*kG*kG*k[5mC]) [compound 772557]", "% Inhibition": 2},
      {"substance": "772563 (antisense kG*kG*k[5mC]*d[5mC]*dA*d[5mC]*d[5mC]*dT*dG*dA*dA*d[5mC]*dA*k[5mC]*kT*kT) [compound 772563]", "% Inhibition": 0},
      {"substance": "772565 (antisense kA*kA*kT*dG*d[5mC]*d[5mC]*dT*dG*dA*dG*dA*dT*d[5mC]*k[5mC]*kG*kG) [compound 772565]", "% Inhibition": 64},
      {"substance": "772572 (antisense kA*kT*k[5mC]*dT*dT*d[5mC]*d[5mC]*d[5mC]*dG*dT*dA*dA*dG*kA*kT*kT) [compound 772572]", "% Inhibition": 0},
      {"substance": "772573 (antisense kA*kG*k[5mC]*dA*d[5mC]*dA*d[5mC]*d[5mC]*dA*dG*d[5mC]*dT*d[5mC]*kG*kG*kG) [compound 772573]", "% Inhibition": 57},
      {"substance": "772587 (kA*kT*k[5mC]*d[5mC]*d[5mC]*d[5mC]*dA*dG*dG*d[5mC]*dT*d[5mC]*d[5mC]*kA*kG*kA; antisense) [compound 772587]", "% Inhibition": 39},
      {"substance": "772590 (kT*kG*kT*dG*dA*d[5mC]*d[5mC]*dG*dA*dT*d[5mC]*d[5mC]*d[5mC]*k[5mC]*kA*kG; antisense) [compound 772590]", "% Inhibition": 37},
      {"substance": "772606 (kA*kG*k[5mC]*d[5mC]*dA*dT*dT*d[5mC]*d[5mC]*d[5mC]*d[5mC]*dT*dG*kA*kG*kG; antisense) [compound 772606]", "% Inhibition": 41},
      {"substance": "772610 (kG*kG*k[5mC]*dA*dA*dA*dA*dG*d[5mC]*d[5mC]*dA*dT*dT*k[5mC]*k[5mC]*k[5mC]; antisense) [compound 772610]", "% Inhibition": 34}
    ]},
    {"system": "human SMAD7 mRNA", "assay": "Antisense inhibition of human SMAD7 mRNA expression in Hep3B cells by 3-10-3 cEt gapmers, 10,000 nM, electroporation (Example 2)", "assay_type": "cell-based", "conditions": "Hep3B cells, electroporation with 10,000 nM antisense oligonucleotide, approximately 24 hours, primer probe set RTS5062, relative to untreated control cells", "method": "as §1, §2, §3", "units": {"% inhibition of SMAD7 mRNA expression": "%"}, "values": [
      {"substance": "772532 (antisense k[5mC]*kA*kG*d[5mC]*dA*dG*dG*d[5mC]*dG*d[5mC]*dA*dG*dG*k[5mC]*kG*kA) [compound 772532]", "% inhibition of SMAD7 mRNA expression": 21},
      {"substance": "772533 (antisense kT*kG*kA*dA*dG*dA*dA*dG*dT*d[5mC]*dG*dG*dG*k[5mC]*kG*k[5mC]) [compound 772533]", "% inhibition of SMAD7 mRNA expression": 31},
      {"substance": "772543 (antisense kG*kG*kA*d[5mC]*dG*dA*dG*d[5mC]*dG*d[5mC]*dA*dG*dA*kT*k[5mC]*kG) [compound 772543]", "% inhibition of SMAD7 mRNA expression": 58},
      {"substance": "772555 (antisense kA*kG*kG*d[5mC]*dA*d[5mC]*dG*d[5mC]*dG*dG*dT*dG*d[5mC]*kG*k[5mC]*kG) [compound 772555]", "% inhibition of SMAD7 mRNA expression": 23},
      {"substance": "772559 (antisense kA*kG*k[5mC]*dG*dA*dG*dT*dA*dG*dG*dA*d[5mC]*dG*kA*kG*kG) [compound 772559]", "% inhibition of SMAD7 mRNA expression": 14}
    ]},
    {"system": "human SMAD7 mRNA", "assay": "Antisense inhibition of human SMAD7 mRNA expression in Hep3B cells by 3-10-3 cEt gapmers, 10,000 nM, electroporation (Example 2)", "assay_type": "cell-based", "conditions": "SMAD7 mRNA, Hep3B cells, 10,000 nM antisense oligonucleotide, electroporation, approximately 24 hours, primer probe set RTS5062, relative to untreated control cells", "method": "as §1, §2, §3", "units": {"% Inhibition": "%"}, "values": [
      {"substance": "772535 (antisense k[5mC]*k[5mC]*kG*d[5mC]*dA*d[5mC]*dA*d[5mC]*d[5mC]*dA*dT*dG*dA*kA*kG*kA) [compound 772535]", "% Inhibition": 29},
      {"substance": "772540 (antisense kA*kG*kG*d[5mC]*dG*dA*dG*dG*dA*dG*dA*dA*dA*kA*kG*kT) [compound 772540]", "% Inhibition": 10},
      {"substance": "772551 (antisense kT*kT*k[5mC]*dA*dG*dA*dT*d[5mC]*d[5mC]*dG*d[5mC]*d[5mC]*dT*k[5mC]*kG*kG) [compound 772551]", "% Inhibition": 39},
      {"substance": "772552 (antisense kG*k[5mC]*kG*d[5mC]*d[5mC]*dT*dT*d[5mC]*dA*dG*dA*dT*d[5mC]*k[5mC]*kG*k[5mC]) [compound 772552]", "% Inhibition": 34},
      {"substance": "772567 (antisense kG*kA*k[5mC]*dT*dT*d[5mC]*d[5mC]*dG*dA*dG*dG*dA*dA*kT*kG*k[5mC]) [compound 772567]", "% Inhibition": 58},
      {"substance": "772571 (antisense k[5mC]*k[5mC]*kG*dT*dA*dA*dG*dA*dT*dT*d[5mC]*dA*d[5mC]*kA*kG*k[5mC]) [compound 772571]", "% Inhibition": 50},
      {"substance": "772582 (k[5mC]*kT*kG*dA*dA*dA*dG*d[5mC]*d[5mC]*d[5mC]*d[5mC]*d[5mC]*d[5mC]*kA*kG*kG; antisense) [compound 772582]", "% Inhibition": 34},
      {"substance": "772584 (kG*kA*kA*dG*dT*dT*dG*dG*dG*dA*dA*dT*d[5mC]*kT*kG*kA; antisense) [compound 772584]", "% Inhibition": 4},
      {"substance": "772589 (kA*k[5mC]*k[5mC]*dG*dA*dT*d[5mC]*d[5mC]*d[5mC]*d[5mC]*dA*dG*dG*k[5mC]*kT*k[5mC]; antisense) [compound 772589]", "% Inhibition": 9},
      {"substance": "772591 (kA*kG*kT*dG*dT*dG*dA*d[5mC]*d[5mC]*dG*dA*dT*d[5mC]*k[5mC]*k[5mC]*k[5mC]; antisense) [compound 772591]", "% Inhibition": 60},
      {"substance": "772592 (k[5mC]*kA*k[5mC]*d[5mC]*dA*dG*dT*dG*dT*dG*dA*d[5mC]*d[5mC]*kG*kA*kT; antisense) [compound 772592]", "% Inhibition": 24},
      {"substance": "772593 (kA*k[5mC]*kG*d[5mC]*dA*d[5mC]*d[5mC]*dA*dG*dT*dG*dT*dG*kA*k[5mC]*k[5mC]; antisense) [compound 772593]", "% Inhibition": 42},
      {"substance": "772595 (kA*k[5mC]*k[5mC]*dA*d[5mC]*dG*d[5mC]*dA*d[5mC]*d[5mC]*dA*dG*dT*kG*kT*kG; antisense) [compound 772595]", "% Inhibition": 2},
      {"substance": "772604 (kA*kT*kT*d[5mC]*d[5mC]*d[5mC]*d[5mC]*dT*dG*dA*dG*dG*dT*kA*kG*kA; antisense) [compound 772604]", "% Inhibition": 48},
      {"substance": "772611 (kT*k[5mC]*k[5mC]*dG*dA*dG*dG*d[5mC]*dA*dA*dA*dA*dG*k[5mC]*k[5mC]*kA; antisense) [compound 772611]", "% Inhibition": 14},
      {"substance": "772614 (kG*kA*k[5mC]*dT*d[5mC]*dT*dT*dG*dT*dT*dG*dT*d[5mC]*k[5mC]*kG*kA; antisense) [compound 772614]", "% Inhibition": 43},
      {"substance": "772623 (kA*kG*kT*d[5mC]*d[5mC]*dG*dG*dG*dT*dT*dG*dT*d[5mC]*k[5mC]*kA*kG; antisense) [compound 772623]", "% Inhibition": 42}
    ]}
  ]
}
